Values quoted from earlier work in patent US8690839B2, “Devices for delivering a medicament and connector for same” (priority 2008, dated 2014).

Tests used:
[1] = for onset (in words): in vivo
[2] = in vivo

CCCCNc1ccc(C(=O)OCCN(C)C)cc1 [Tetracaine, tetracaine]
onset (in words) [1]: fast onset

CCOC(=O)c1ccc(N)cc1 [Benzocaine, benzocaine]
toxic dose [2]: > 200 mg | onset time ([1]; topical use): about 30 seconds

CCCN1CCCC[C@H]1C(=O)Nc1c(C)cccc1C [Ropivacaine, ropivacaine]
toxic dose [2]: about 175 mg | onset (in words) [1]: slow onset
